Data from US11370798B2 (Vertex Pharmaceuticals Incorporated, priority 2012, dated 2022).

Tested on: HCT116 colorectal cancer cells
Assay: Cisplatin sensitization assay (96 h cell viability MTS);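 also: Test-compound concentration that lowers the Cisplatin IC50 by a set fold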
Assay type: cell-based
Details: compound and Cisplatin added simultaneously, Cisplatin sensitization value
In short: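 Compound and cisplatin added together as a full matrix of 2-fold serial dilutions from a top final concentration of 10 μM; cells incubated 96 h at 37° C, 5% CO2. Viability then read by MTS after 1 h further incubation; sensitization value reported in μM bins.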

| Structure (SMILES) | Cisplatin Sensitization Assay |
| --- | --- |
| Cc1nonc1N1CCN(c2ccncc2NC(=O)c2c(N)nn3cc(F)cnc23)CC1 [I-N-260, 2-amino-6-fluoro-N-(4-(4-(4-methyl-1,2,5-oxadiazol-3-yl)piperazin-1-yl)pyridin-3-yl)pyrazolo[1,5-a]pyrimidine-3-carboxamide] | +++ (Cisplatin sensitization value of <0.02 μM) |
| COC(=O)N1CCN(c2c(F)cncc2NC(=O)c2c(N)nn3cc(F)cnc23)CC1 [I-N-261, methyl-4-(3-(2-amino-6-fluoropyrazolo[1,5-a]pyrimidine-3-carboxamido)-5-fluoropyridin-4-yl)piperazine-1-carboxylate] | +++ (Cisplatin sensitization value of <0.02 μM) |
| CC(=O)N1CCCC12CCN(c1ccncc1NC(=O)c1c(N)nn3cc(F)cnc13)CC2 [I-N-262, N-(4-(1-acetyl-1,8-diazaspiro[4.5]decan-8-yl)pyridin-3-yl)-2-amino-6-fluoropyrazolo[1,5-a]pyrimidine-3-carboxamide] | +++ (Cisplatin sensitization value of <0.02 μM) |
| Cc1nncn1-c1ccncc1NC(=O)c1c(N)nn2cc(F)cnc12 [I-N-263, 2-amino-6-fluoro-N-(4-(3-methyl-4H-1,2,4-triazol-4-yl)pyridin-3-yl)pyrazolo[1,5-a]pyrimidine-3-carboxamide] | + (Cisplatin sensitization value>0.2 μM but <5 μM) |
| Nc1nn2cc(F)cnc2c1C(=O)Nc1cnccc1N1CCCCCC1 [I-N-264, 2-amino-N-(4-(azepan-1-yl)pyridin-3-yl)-6-fluoropyrazolo[1,5-a]pyrimidine-3-carboxamide] | + (Cisplatin sensitization value>0.2 μM but <5 μM) |
| Cc1nnc(C2CCN(c3ccncc3NC(=O)c3c(N)nn4cc(F)cnc34)CC2)o1 [I-N-265, 2-amino-6-fluoro-N-(4-(4-(5-methyl-1,3,4-oxadiazol-2-yl)piperidin-1-yl)pyridin-3-yl)pyrazolo[1,5-a]pyrimidine-3-carboxamide] | ++ (Cisplatin sensitization value>0.02 μM but <0.2 μM) |
| COC1CCN(c2ccncc2NC(=O)c2c(N)nn3cc(F)cnc23)CC1 [I-N-266, 2-amino-6-fluoro-N-(4-(4-methoxypiperidin-1-yl)pyridin-3-yl)pyrazolo[1,5-a]pyrimidine-3-carboxamide] | +++ (Cisplatin sensitization value of <0.02 μM) |
| CN(C)CC1CCN(c2ccncc2NC(=O)c2c(N)nn3cc(F)cnc23)CC1 [I-N-267, 2-amino-N-(4-(4-((dimethylamino)methyl)piperidin-1-yl)pyridin-3-yl)-6-fluoropyrazolo[1,5-a]pyrimidine-3-carboxamide] | +++ (Cisplatin sensitization value of <0.02 μM) |
| Nc1nn2cc(F)cnc2c1C(=O)Nc1cnccc1N1CCC(c2nnco2)CC1 [I-N-268, N-(4-(4-(1,3,4-oxadiazol-2-yl)piperidin-1-yl)pyridin-3-yl)-2-amino-6-fluoropyrazolo[1,5-a]pyrimidine-3-carboxamide] | +++ (Cisplatin sensitization value of <0.02 μM) |
| Cc1ncn(-c2ccncc2NC(=O)c2c(N)nn3cc(F)cnc23)c1C [I-N-269, 2-amino-N-(4-(4,5-dimethyl-1H-imidazol-1-yl)pyridin-3-yl)-6-fluoropyrazolo[1,5-a]pyrimidine-3-carboxamide] | ++ (Cisplatin sensitization value>0.02 μM but <0.2 μM) |
| Nc1nn2cc(F)cnc2c1C(=O)Nc1cncc(F)c1N1CCCCC1 [I-N-270, 2-amino-6-fluoro-N-(5-fluoro-4-(piperidin-1-yl)pyridin-3-yl)pyrazolo[1,5-a]pyrimidine-3-carboxamide] | +++ (Cisplatin sensitization value of <0.02 μM) |
| Nc1nn2cc(F)cnc2c1C(=O)Nc1cnccc1N1CCC(S(=O)(=O)N2CCC2)CC1 [I-N-271, 2-amino-N-(4-(4-(azetidin-1-ylsulfonyl)piperidin-1-yl)pyridin-3-yl)-6-fluoropyrazolo[1,5-a]pyrimidine-3-carboxamide] | +++ (Cisplatin sensitization value of <0.02 μM) |
| CN1CCOC2(CCN(c3c(F)cncc3NC(=O)c3c(N)nn4cc(F)cnc34)CC2)C1 [I-N-272, 2-amino-6-fluoro-N-(5-fluoro-4-(4-methyl-1-oxa-4,9-diazaspiro[5.5]undecan-9-yl)pyridin-3-yl)pyrazolo[1,5-a]pyrimidine-3-carboxamide] | +++ (Cisplatin sensitization value of <0.02 μM) |
| Nc1nn2cc(F)cnc2c1C(=O)Nc1cncc(F)c1N1CCC(S(=O)(=O)N2CCN3CCC2CC3)CC1 [I-N-273, N-(4-(4-(1,4-diazabicyclo[3.2.2]nonan-4-ylsulfonyl)piperidin-1-yl)-5-fluoropyridin-3-yl)-2-amino-6-fluoropyrazolo[1,5-a]pyrimidine-3-carboxamide] | +++ (Cisplatin sensitization value of <0.02 μM) |
| Nc1nn2cc(F)cnc2c1C(=O)Nc1cncc(F)c1N1CCN(C(=O)C2CCOC2)CC1 (centres unmarked) [I-N-274, 2-amino-6-fluoro-N-(5-fluoro-4-(4-(tetrahydrofuran-3-carbonyl)piperazin-1-yl)pyridin-3-yl)pyrazolo[1,5-a]pyrimidine-3-carboxamide] | +++ (Cisplatin sensitization value of <0.02 μM) |
| CC(=O)N1CCN(c2c(F)cncc2NC(=O)c2c(N)nn3cc(F)cnc23)CC1 [I-N-275, N-(4-(4-acetylpiperazin-1-yl)-5-fluoropyridin-3-yl)-2-amino-6-fluoropyrazolo[1,5-a]pyrimidine-3-carboxamide] | +++ (Cisplatin sensitization value of <0.02 μM) |
| Nc1nn2cc(F)cnc2c1C(=O)Nc1cncc(F)c1N1CCN(C(=O)C2CC2)CC1 [I-N-276, 2-amino-N-(4-(4-(cyclopropanecarbonyl)piperazin-1-yl)-5-fluoropyridin-3-yl)-6-fluoropyrazolo[1,5-a]pyrimidine-3-carboxamide] | +++ (Cisplatin sensitization value of <0.02 μM) |
| Nc1nn2cc(F)cnc2c1C(=O)Nc1cncc(F)c1N1CCN2C(=O)CCCC2C1 (centres unmarked) [I-N-277, 2-amino-6-fluoro-N-(5-fluoro-4-(6-oxohexahydro-1H-pyrido[1,2-a]pyrazin-2(6H)-yl)pyridin-3-yl)pyrazolo[1,5-a]pyrimidine-3-carboxamide] | +++ (Cisplatin sensitization value of <0.02 μM) |
| Nc1nn2cc(F)cnc2c1C(=O)Nc1cncc(F)c1N1CCN(C(=O)C2COC2)CC1 [I-N-278, 2-amino-6-fluoro-N-(5-fluoro-4-(4-(oxetane-3-carbonyl)piperazin-1-yl)pyridin-3-yl)pyrazolo[1,5-a]pyrimidine-3-carboxamide] | +++ (Cisplatin sensitization value of <0.02 μM) |
| Nc1nn2cc(F)cnc2c1C(=O)Nc1cncc(F)c1N1CCN2C(=O)CCC[C@H]2C1 [I-N-279, (S)-2-amino-6-fluoro-N-(5-fluoro-4-(6-oxohexahydro-1H-pyrido[1,2-a]pyrazin-2(6H)-yl)pyridin-3-yl)pyrazolo[1,5-a]pyrimidine-3-carboxamide] | +++ (Cisplatin sensitization value of <0.02 μM) |
| Nc1nn2cc(F)cnc2c1C(=O)Nc1cncc(F)c1N1CCN2C(=O)CCC[C@@H]2C1 [I-N-280, (R)-2-amino-6-fluoro-N-(5-fluoro-4-(6-oxohexahydro-1H-pyrido[1,2-a]pyrazin-2(6H)-yl)pyridin-3-yl)pyrazolo[1,5-a]pyrimidine-3-carboxamide] | +++ (Cisplatin sensitization value of <0.02 μM) |
| Nc1nn2cc(F)cnc2c1C(=O)Nc1cncc(Cl)c1N1CCCC1 [I-N-281, 2-amino-N-(5-chloro-4-(pyrrolidin-1-yl)pyridin-3-yl)-6-fluoropyrazolo[1,5-a]pyrimidine-3-carboxamide] | +++ (Cisplatin sensitization value of <0.02 μM) |
| COCC1CCN(c2ccncc2NC(=O)c2c(N)nn3cc(F)cnc23)CC1 [I-N-282, 2-amino-6-fluoro-N-(4-(4-(methoxymethyl)piperidin-1-yl)pyridin-3-yl)pyrazolo[1,5-a]pyrimidine-3-carboxamide] | +++ (Cisplatin sensitization value of <0.02 μM) |
| Cc1cncn1-c1ccncc1NC(=O)c1c(N)nn2cc(F)cnc12 [I-N-283, 2-amino-6-fluoro-N-(4-(5-methyl-1H-imidazol-1-yl)pyridin-3-yl)pyrazolo[1,5-a]pyrimidine-3-carboxamide] | ++ (Cisplatin sensitization value>0.02 μM but <0.2 μM) |
| Nc1nn2cc(F)cnc2c1C(=O)Nc1cncc(Cl)c1N1CCC(O)C1 (centres unmarked) [I-N-284, 2-amino-N-(5-chloro-4-(3-hydroxypyrrolidin-1-yl)pyridin-3-yl)-6-fluoropyrazolo[1,5-a]pyrimidine-3-carboxamide] | +++ (Cisplatin sensitization value of <0.02 μM) |
| N#C[C@@H]1CCN(c2c(Cl)cncc2NC(=O)c2c(N)nn3cc(F)cnc23)C1 [I-N-285, (R)-2-amino-N-(5-chloro-4-(3-cyanopyrrolidin-1-yl)pyridin-3-yl)-6-fluoropyrazolo[1,5-a]pyrimidine-3-carboxamide] | ++ (Cisplatin sensitization value>0.02 μM but <0.2 μM) |
| CN1CC2CN(c3c(Cl)cncc3NC(=O)c3c(N)nn4cc(F)cnc34)CC2C1 (centres unmarked) [I-N-286, 2-amino-N-(5-chloro-4-(5-methylhexahydropyrrolo[3,4-c]pyrrol-2(1H)-yl)pyridin-3-yl)-6-fluoropyrazolo[1,5-a]pyrimidine-3-carboxamide] | ++ (Cisplatin sensitization value>0.02 μM but <0.2 μM) |
| CS(=O)(=O)C1CCN(c2c(Cl)cncc2NC(=O)c2c(N)nn3cc(F)cnc23)C1 (centres unmarked) [I-N-287, 2-amino-N-(5-chloro-4-(3-(methylsulfonyl)pyrrolidin-1-yl)pyridin-3-yl)-6-fluoropyrazolo[1,5-a]pyrimidine-3-carboxamide] | +++ (Cisplatin sensitization value of <0.02 μM) |
| Nc1nn2cc(F)cnc2c1C(=O)Nc1cncc(F)c1N1CCC(n2ccnc2)CC1 [I-N-288, N-(4-(4-(1H-imidazol-1-yl)piperidin-1-yl)-5-fluoropyridin-3-yl)-2-amino-6-fluoropyrazolo[1,5-a]pyrimidine-3-carboxamide] | +++ (Cisplatin sensitization value of <0.02 μM) |
